Data on 30 compounds can be found in patent US9546157B2, “Asymmetric piperidinyl-substituted ureas as medicines” (Helsinn Healthcare SA, priority 2014, dated 2017).

The term EC50 denotes the midpoint of the concentration-response curve. Broadly, the IC50 is the concentration that inhibits the measured activity by half.

For experiment [1], the target named is T1, GHSR1a (Homo sapiens, UniProt Q92847).
T1 construct: expressed in transfected cells; host or cells: HEK293
Kind of experiment: Calcium FLIPR assay, GHSR-1a agonism. The experiment is classed as cell-based. Further details: Emax: unit not given here. As to conditions: HEK293/GHSR1a cells. The method, then: (§1) The intracellular calcium assay was carried out in a 384-well format FLIPR™ (Molecular Device) HEK293/GHSR1a cell line. Cells were seeded 24 hr prior to the experiments at an optimal density per well. Preincubation with selected calcium dye lasted for 30-60 min at room temperature or 37° C. Test compounds, dissolved in DMSO, were added at the appropriate time and incubated for 15 min followed by the addition of ghrelin with FlexStation or FLIPR. Relative fluorescence was monitored by the FLIPR™ Molecular Device. EC50 and IC50 values were estimated from dose-response data using GraphPad Prism software. To check for GHSR-1a agonism the compound was added at t=20 sec. and the calcium response was followed for 2 minutes. To check for GHSR-1a antagonism the compound and Ghrelin (10 nM) were added to the cells at t=20 sec. and the calcium response was measured for 2 minutes. The potency of the antagonist was calculated by its ability to reduce the ghrelin response. Dose-response curves were made for relevant antagonists.

Experiment [2] has as its target T1, GHSR1a. Kind of experiment: Calcium FLIPR assay, GHSR-1a antagonism (reduction of ghrelin response). As to conditions: HEK293/GHSR1a cells, ghrelin 10 nM. It counts as cell-based. The protocol:
as §1

T1 sequence (Q92847 whole entry): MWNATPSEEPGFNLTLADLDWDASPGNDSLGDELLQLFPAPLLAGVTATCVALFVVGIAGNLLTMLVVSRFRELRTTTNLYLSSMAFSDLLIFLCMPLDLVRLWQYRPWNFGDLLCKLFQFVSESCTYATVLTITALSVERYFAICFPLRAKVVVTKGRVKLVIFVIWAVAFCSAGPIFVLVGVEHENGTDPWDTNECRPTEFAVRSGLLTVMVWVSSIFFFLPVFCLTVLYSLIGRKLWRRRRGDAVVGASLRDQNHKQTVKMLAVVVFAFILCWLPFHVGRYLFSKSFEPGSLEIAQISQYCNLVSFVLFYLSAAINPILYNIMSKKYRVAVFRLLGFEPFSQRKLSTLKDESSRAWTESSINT

`CC(NC(=O)N(C)C1CCN(C)CC1)c1ccc(-c2cccs2)c(Cl)c1Cl` (single isomer, unassigned) [Compound H0564, 3-(1-(2,3-dichloro-4-(thiophen-2-yl)phenyl)ethyl)-1-methyl-1-(1-methylpiperidin-4-yl)urea]: at GHSR1a [1], the concentration giving a half-maximal response (EC50) was 124 nM and the Emax is listed as 1987. In addition, the IC50 at GHSR1a [2] was found to be 75 nM.
Take `CN1CCC(N(O)C(=O)NC(CC2CC2)c2ccc(-c3cnccn3)c(Cl)c2Cl)CC1` (single isomer, unassigned) [Compound H0781, 3-(2-cyclopropyl-1-(2,3-dichloro-4-(pyrazin-2-yl)phenyl)ethyl)-1-hydroxy-1-(1-methylpiperidin-4-yl)urea]: on GHSR1a [1], the EC50 was determined as 420 nM and the Emax stood at 4210. On GHSR1a [2], the IC50 was 95 nM.
`CC[C@@H](NC(=O)N(C)C1CCN(C)CC1)c1ccc(-c2cnccn2)c(Cl)c1Cl` (single isomer, unassigned) [Compound H0859]: the EC50 on GHSR1a [1] was above 30000 nM. Also, the IC50 on GHSR1a [2] is 2200 nM.
Taken in the same sequence, the figures for `C[C@H](NC(=O)N(C)C1CCN(C)C1)c1ccc(-c2cnccn2)c(Cl)c1Cl` (single isomer, unassigned) [Compound H0861] were above 30000 nM and 189 nM.
Turning to `CC(NC(=O)N(C)C1CCN(C)CC1)c1ccc(-c2cccc3c2cnn3C)c(Cl)c1Cl` (stereo not drawn) [Compound H0512, 3-(1-(2,3-dichloro-4-(1-methyl-1H-indazol-4-yl)phenyl)ethyl)-1-methyl-1-(1-methylpiperidin-4-yl)urea], at GHSR1a [1], the EC50 is above 30000 nM. Further, at GHSR1a [2], the IC50 is 495 nM.
The matching figures for `CC(NC(=O)N(C)C1CCN(C)CC1)c1ccc(-c2cccc3[nH]ncc23)c(Cl)c1Cl` (stereo not drawn) [Compound H0513, 3-(1-(2,3-dichloro-4-(1H-indazol-4-yl)phenyl)ethyl)-1-methyl-1-(1-methylpiperidin-4-yl)urea]: above 30000 nM and 544 nM.
The matching figures for `CC(NC(=O)N(C)C1CCN(C)CC1)c1ccc(-c2ccc3[nH]ccc3c2)c(Cl)c1Cl` (stereo not drawn) [Compound H0515, 3-(1-(2,3-dichloro-4-(1H-indol-5-yl)phenyl)ethyl)-1-methyl-1-(1-methylpiperidin-4-yl)urea]: 885 nM and 40 nM.
As to `CC(NC(=O)N(C)C1CCN(C)CC1)c1ccc(-c2ccc(N)cc2)c(Cl)c1Cl` (stereo not drawn) [Compound H0517, 3-(1-(4′-amino-2,3-dichloro-[1,1′-biphenyl]-4-yl)ethyl)-1-methyl-1-(1-methylpiperidin-4-yl)urea], the concentration for a half-maximal effect (EC50) on GHSR1a [1] was above 30000 nM. For the same compound, on GHSR1a [2], the half-maximal inhibitory concentration (IC50) worked out at 19 nM.
In the case of `CC(NC(=O)N(C)C1CCN(C)CC1)c1ccc(-c2ccc(N(C)C)cc2)c(Cl)c1Cl` (stereo not drawn) [Compound H0518, 3-(1-(2,3-dichloro-4′-(dimethylamino)-[1,1′-biphenyl]-4-yl)ethyl)-1-methyl-1-(1-methylpiperidin-4-yl)urea], the EC50 on GHSR1a [1] was above 30000 nM. Also, the IC50 on GHSR1a [2] amounted to 841 nM.
The matching figures for `CC(NC(=O)N(C)C1CCN(C)CC1)c1ccc(C2=CCCCC2)c(Cl)c1Cl` (stereo not drawn) [Compound H0520, 3-(1-(2,3-dichloro-2′,3′,4′,5′-tetrahydro-[1,1′-biphenyl]-4-yl)ethyl)-1-methyl-1-(1-methylpiperidin-4-yl)urea]: 394 nM and 202 nM.
With `COC(=O)c1ccc(C(C)NC(=O)N(C)C2CCN(C)CC2)c(Cl)c1Cl` (stereo not drawn) [Compound H0521], the EC50 on GHSR1a [1] turned out to be 19 nM. For the same compound, the IC50 on GHSR1a [2] came out at 20 nM.
The matching figures for `CC(NC(=O)N(C)C1CCN(C)CC1)c1ccc(C#N)c(Cl)c1Cl` (stereo not drawn) [Compound H0523, 3-(1-(2,3-dichloro-4-cyanophenyl)ethyl)-1-methyl-1-(1-methylpiperidin-4-yl)urea]: above 30000 nM and 668 nM.
Taken in the same sequence, the figures for `CC(NC(=O)N(C)C1CCN(C)C1)c1ccc(-c2cccnc2)c(Cl)c1Cl` (stereo not drawn) [Compound H0526, 3-(1-(2,3-dichloro-4-(pyridin-3-yl)phenyl)ethyl)-1-methyl-1-(1-methylpyrrolidin-3-yl)urea] were above 30000 nM and 57 nM.
Taken in the same sequence, the figures for `CC(NC(=O)N(C)C1CCN(C)CC1)c1ccc(-c2ccc[nH]2)c(Cl)c1Cl` (stereo not drawn) [Compound H0535, 3-(1-(2,3-dichloro-4-(1H-pyrrol-2-yl)phenyl)ethyl)-1-methyl-1-(1-methylpiperidin-4-yl)urea] were 4 nM and 34 nM.
As to `COC(=O)c1ccc(CN(C(=O)NC(C)c2ccc(-c3cccnc3)c(Cl)c2Cl)C2CCN(C)CC2)cc1` (stereo not drawn) [Compound H0539, methyl 4-((3-(1-(2,3-dichloro-4-(pyridin-3-yl)phenyl)ethyl)-1-(1-methylpiperidin-4-yl)ureido)methyl)benzoate], the EC50 on GHSR1a [1] is above 30000 nM. For the same compound, at GHSR1a [2], the IC50 stood at 9 nM.
For the compound `CC(NC(=O)N(C)C1CCN(C)CC1)c1ccc(-c2cn[nH]c2)c(Cl)c1F` (stereo not drawn) [Compound H0571, 3-(1-(3-chloro-2-fluoro-4-(1H-pyrazol-4-yl)phenyl)ethyl)-1-methyl-1-(1-methylpiperidin-4-yl)urea], at GHSR1a [1], the EC50 is above 30000 nM. Further, the IC50 on GHSR1a [2] came out at 154 nM.
In the case of `CC(NC(=O)N(C)C1CCN(C)CC1)c1ccc(-c2cn[nH]c2)c2ccccc12` (stereo not drawn) [Compound H0576, 3-(1-(4-(1H-pyrazol-4-yl)naphthalen-1-yl)ethyl)-1-methyl-1-(1-methylpiperidin-4-yl)urea], the half-maximal effective concentration (EC50) at GHSR1a [1] is above 30000 nM. Besides, the IC50 at GHSR1a [2] was 180 nM.
On to `CC(NC(=O)N(C)C1CCN(C)CC1)c1ccc(-c2cccnc2)c2ccccc12` (stereo not drawn) [Compound H0577, 1-methyl-1-(1-methylpiperidin-4-yl)-3-(1-(4-(pyridin-3-yl)naphthalen-1-yl)ethyl)urea], for which the concentration for a half-maximal effect (EC50) at GHSR1a [1] was above 30000 nM. Moreover, the IC50 at GHSR1a [2] was determined as 233 nM.
The matching figures for `CC(NC(=O)N(C)C1CCN(C)CC1)c1ccc(-c2ccncc2)c2ccccc12` (stereo not drawn) [Compound H0578, 1-methyl-1-(1-methylpiperidin-4-yl)-3-(1-(4-(pyridin-4-yl)naphthalen-1-yl)ethyl)urea]: above 30000 nM and 490 nM.
As to `CC(NC(=O)N(C)C1CCN(C)CC1)c1ccc(-c2cncnc2)c2ccccc12` (stereo not drawn) [Compound H0579, 1-methyl-1-(1-methylpiperidin-4-yl)-3-(1-(4-(pyrimidin-5-yl)naphthalen-1-yl)ethyl)urea], the EC50 on GHSR1a [1] was above 30000 nM.
Consider `CC(NC(=O)N(C)C1CCCCC1)c1ccc(-c2cncnc2)c(Cl)c1Cl` (stereo not drawn) [Compound H0584, 1-cyclohexyl-3-(1-(2,3-dichloro-4-(pyrimidin-5-yl)phenyl)ethyl)-1-methylurea], for which the EC50 on GHSR1a [1] is above 30000 nM. Moreover, the IC50 on GHSR1a [2] amounted to 1100 nM.
Taken in the same sequence, the figures for `CC(NC(=O)N(C)C1CCOCC1)c1ccc(-c2cncnc2)c(Cl)c1Cl` (stereo not drawn) [Compound H0586, 3-(1-(2,3-dichloro-4-(pyrimidin-5-yl)phenyl)ethyl)-1-methyl-1-(tetrahydro-2H-pyran-4-yl)urea] were 63000 nM and 4200 nM.
Turning to `CC(NC(=O)N(C)C1CCC(F)(F)CC1)c1ccc(-c2cncnc2)c(Cl)c1Cl` (stereo not drawn) [Compound H0587, 3-(1-(2,3-dichloro-4-(pyrimidin-5-yl)phenyl)ethyl)-1-(4,4-difluorocyclohexyl)-1-methylurea], the EC50 on GHSR1a [1] is above 30000 nM. For the same compound, the IC50 at GHSR1a [2] is above 30000 nM.
In the case of `CC(=O)N1CCC(N(C)C(=O)NC(C)c2ccc(-c3cncnc3)c(Cl)c2Cl)CC1` (stereo not drawn) [Compound H0588, 1-(1-acetylpiperidin-4-yl)-3-(1-(2,3-dichloro-4-(pyrimidin-5-yl)phenyl)ethyl)-1-methylurea], the EC50 on GHSR1a [1] is above 30000 nM. Also, the IC50 at GHSR1a [2] is above 30000 nM.
`CC(NC(=O)N(C)C1CCN(C)CC1)c1ccc(-c2nnco2)c(Cl)c1Cl` (stereo not drawn) [Compound H0595, 3-(1-(2,3-dichloro-4-(1,3,4-oxadiazol-2-yl)phenyl)ethyl)-1-methyl-1-(1-methylpiperidin-4-yl)urea]: on GHSR1a [1], the EC50 worked out at 43 nM. Further, at GHSR1a [2], the IC50 was determined as 28 nM.
The matching figures for `CC(NC(=O)N(C)C1CCN(C)CC1)c1ccc(-c2ccoc2)c2ccccc12` (stereo not drawn) [Compound H0598, 3-(1-(4-(furan-3-yl)naphthalen-1-yl)ethyl)-1-methyl-1-(1-methylpiperidin-\4-yl)urea]: 271 nM and 63 nM.
For the compound `CC(NC(=O)N(C)C1CCN(C)CC1)c1ccc(-c2cnc[nH]2)c2ccccc12` (stereo not drawn) [Compound H0599, 3-(1-(4-(1H-imidazol-5-yl)naphthalen-1-yl)ethyl)-1-methyl-1-(1-methylpiperidin-4-yl)urea], the EC50 on GHSR1a [1] is 478 nM. The IC50 at GHSR1a [2] was found to be 212 nM.
The matching figures for `CC(NC(=O)N(C)C1CCN(C)CC1)c1ccc(C#C[Si](C)(C)C)c(Cl)c1Cl` (stereo not drawn) [Compound H0602, 3-(1-(2,3-dichloro-4-((trimethylsilyl)ethynyl)phenyl)ethyl)-1-methyl-1-(1-methylpiperidin-4-yl)urea]: above 30000 nM and 8 nM.
For `COc1ccc(C(C#N)NC(=O)N(C)C2CCN(C)CC2)c(Cl)c1Cl` (stereo not drawn) [Compound H0669, 3-(cyano(2,3-dichloro-4-methoxyphenyl)methyl)-1-methyl-1-(1-methylpiperidin-4-yl)urea], on GHSR1a [1], the EC50 was 5 nM and the Emax was 4961.
Regarding `COC(=O)c1ccc(C#Cc2ccc(C(C)NC(=O)N(C)C3CCN(C)CC3)c(Cl)c2Cl)s1` (stereo not drawn) [Compound H0779], the IC50 at GHSR1a [2] came out at 429 nM.
